Laboratory results as given in patent US4935509A (priority 1989, dated 1990).

Assays:
P388 wild-type cells = experiment: MTT cell count (ID50), P388 wild-type leukemia cells in vitro; type: cell-based, murine; conditions: Mus musculus, P388, 120 h, read-out: ID50 P388/Wild
Description: (§1) In the various assays set forth below the colorimetric determination of the number of cells was carried out by the following procedure using MTT.
(§2) 3-(4,5-dimethylthiazol-2-yl)-2,5-dipenyl tetrazolium bromide (MTT) was prepared as a 5 mg/ml stock solution in phosphate buffered saline, filtered through a 0.22 μm filter and stored for up to two weeks at 4° C. while protected from light. For use in the assay it was diluted to 1 mg/ml in a pH 7.2 solution of phenol-red-free RPMI 1640 tissue culture medium supplemented with 1 mM sodium pyruvate and 50 μg/ml gentamycin. The assay was done in flat bottomed 96-well microtiter plates. Culture medium was removed from the wells by inverting and blotting the plate, fifty μl of MTT solution was added to the cells in each well, and each plate was incubated at 37° C. in an atmosphere of 5% CO2 in air. After incubation, each plate was centrifuged for 5 minutes at 8000×g and excess MTT removed by inverting and blotting. Fifty μl of 95% ethanol was added to each well and the plate was shaken (speed 6.5 for 15 minutes) to solubilize the formazan in each well. The optical density of each well was measured using an automatic plate reader with a test wavelength of 570 nm and a reference wavelength of 630 nm.
(§3) The differential in vitro activity of the above compounds as compared to vincristine and vinblastine with regard to P388 wild-type and P388 multiple-drug resistant leukemia was carried out by the following procedure.
(§4) Tissue culture-adapted lines of the P388 wild-type and P388 multiple-drug resistant cells (principally resistant to adriamycin) were obtained from the American Type Culture Collection, Rockville, MD. Experiments were conducted in 96-well microtiter plates with 300 cells from either line seeded in a volume of 200 μl of tissue culture medium (RPMI 1640 supplemented to 10% (v/v) with heat-inactivated fetal bovine serum (FBS) and to […] with 1-glutamine). Cells and varying log^10 dilutions of test compound were added to triplicate sets of wells on the same day and cultures were incubated for 5 days at 37° C. in a humidified atmosphere of 5% CO2 in air. The number of cells per well at the end of the experiment was determined colorimetrically by the reduction of MTT as described above.

[1] = test system: P388 multiple-drug resistant cells; experiment: cells; type: cell-based, murine; conditions: for Fold-resistance: ID50 resistant cell line divided by ID50 wildtype cell line, 7200 min; for IC50: Mus musculus, P388, 120 h, read-out: ID50 P3/88/resist.
Description: as §1, §2, §3, §4

WI-38 fibroblast = experiment: MTT cell count (ID50), non-transformed human fibroblast cell line WI-38; type: cell-based; design: unit not given here; conditions: 6 days incubation
Description: as §1, §2
(§5) The in vitro effects of the novel compounds as compared to vinblastine and vincristine on three human colon cancer cell lines and one non-transformedhuman cell line were determined by the following procedure.
(§6) The non-transformed human fibroblast cell line, WI-38 and two of the human colon cancer cell lines, COLO-320-DM and HT-29, were obtained from the American Type Culture Collection, Rockville, MD and the third human colon cancer cell line, OM-1, was supplied by E. I. du Pont de Nemours and Co., Inc., Glenholden, PA. Both OM-1 and COLO-320-DM cells were maintained by serial passage in RPMI 1640 tissue culture medium supplemented to 10% (v/v) with heat-inactivated FBS. HT-29 cells were similarly maintained in McCoys 5A tissue culture medium supplemented with 10% heat-inactivated FBS. COLO-320-DM cells were detached by gentle scraping while HT-29 and OM-1 cells were detached using 0.25% trypsin and 0.05% trypsin, 0.5 mM EDTA solutions respectively. All cultures were incubated at 37° C. in a humidified environment of 5% CO2 in air. Experiments were conducted in 96-well flat-bottomed plates. The initial cell seeds per well for each cell line were 4,000 for WI- 38; 2,000 for COLO-320-DM; 750 for HT-29; and 3,000 for OM-1, each in the appropriate tissue culture medium. Cells were plated 24 hours before test compound was added to allow cells to recover from the effects of physical scraping and trypsinization. Varying log10 dilutions of drug were added to triplicate sets of wells and cultures were incubated for 6 days at 37° in a humidified atmosphere of 5% CO2 in air. The number of cells per well at the end of the experiment was determined colorimetrically by the reduction of MTT as described above and the results for each compounds shown in Table II. For purposes of comparison, the concentration of each test compound required to reduce the final cell number to one-half of the number in drug-free control cultures (ID50) is shown in Table II.

COLO-320-DM = experiment: MTT cell count (ID50), human colon cancer cell line COLO-320-DM; type: cell-based; conditions: 144 h, read-out: ID50 COLO-320
Description: as §1, §2, §5, §6

HT-29 = experiment: MTT cell count (ID50), human colon cancer cell line HT-29; type: cell-based; conditions: HT-29, 144 h, read-out: ID50 HT-29
Description: as §1, §2, §5, §6

OM-1 = experiment: MTT cell count (ID50), human colon cancer cell line OM-1; type: cell-based; conditions: 144 h, read-out: ID50 OM-1
Description: as §1, §2, §5, §6

[2] = In vivo effect against P388 leukemia in mice (TD50, ED50, T.I.); conditions: mouse, in vivo, ip
Excerpt: (§7) The in vivo effect of the novel compounds of this invention against P388 leukemia as compared to vinblastine and vincristine, were compared by the following procedure.
(§8) P388 murine leukemia cells were obtained from Southern Research Institute, Birmingham, Ala., and were maintained by serial i.p. passage in C57BL/6 mice. Female (C57BL/6×DBA/2) F1 (BDF) mice of 6-8 weeks of age from Jackson Laboratories, Bar Harbor, Maine, received 1×10^6 P388 cells by i.p. inoculation on day 0. Compounds were dissolved in saline and administered i.p. to 10 tumor-bearing mice per dose level on days 0-4 and 7-9 using 5 to 10 log2 dilutions from a concentration known to be toxic. […] The therapeutic index (T.I.) for each compound was calculated by the formula: [formula]

P388 leukemia [3] = experiment: as above; conditions: for T.I. (therapeutic index): calculated from TD50 and ED50
Excerpt: as §7, §8

P388 leukemia [4] = experiment: Increase in mean survival time of mice bearing P388 leukemia; type: in vivo; conditions: i.p.; for Increase in MST: vs vehicle
Description: The efficacy of the remaining compounds is clearly documented by the fact that each increased the mean survival time of tumor-bearing mice in a dose-dependentmanner. […] The percent increase in mean survival time (MST) which appears in Table IV was calculated by the following formula: [formula]

[5] = 0.12 mg/kg (optimal dose), vehicle 9.6 days (A), 10.1 days (E)

SMILES | IC50 (P388 wild-type cells) [nM] | Fold-resistance [1] | IC50 [1] [nM] | ID50 WI-38 fibroblast (WI-38 fibroblast) | IC50 (COLO-320-DM) [nM] | IC50 (HT-29) [nM] | IC50 (OM-1) [nM] | LD50 [2] [mg/kg] | T.I. (therapeutic index) (P388 leukemia [3]) | Mean Survival Time (P388 leukemia [4]; [5]) [days] | Increase in MST (P388 leukemia [4]; 0.12 mg/kg (optimal dose)) [%] | ED50 (P388 leukemia [3]; Mus musculus, P388, ip, read-out: ED50 (extrapolated values)) [mg/kg] | Mean Survival Time (P388 leukemia [4]; 0.015 mg/kg (optimal dose), vehicle 10.7 days) [days] | Increase in MST (P388 leukemia [4]; 0.015 mg/kg (optimal dose)) [%]
CC[C@]12C=CCN3CC[C@@]4(c5cc([C@@]6(C(=O)OC)C[C@H]7CN(CCc8c6[nH]c6ccccc86)C[C@@H]6CCCC[C@H]76)c(OC)cc5N(C)[C@H]4[C@@](O)(C(=O)OC)[C@@H]1OC(C)=O)[C@@H]32 [E, (4aR,8aS,9R,11S)-15-[1,2,4,4a,5,6,7,8,8a,9,10,11,12,17-tetradecahydro-11-(methoxycarbonyl)-indolo(2',3':6,7,)azonino(1,2,3-bc)isoquinolin-11-yl] vindoline] | 68 | 6 | 430 | 3 × 10^-7 | 300 | 300 | 400 | 0.18 | < 1 | 21.5 | 113 | – | – | –
CC[C@]12C=CCN3CC[C@@]4(c5cc([C@@]6(C(=O)OC)C[C@H]7CN(CCc8c6[nH]c6ccccc86)C[C@H]6CCCC[C@H]67)c(OC)cc5N(C=O)[C@H]4[C@@](O)(C(=O)OC)[C@@H]1OC(C)=O)[C@@H]32 [D, (4aS,8aR,9R,11S)-15-[1,2,4,4a,5,6,7,8,8a,9,10,11,12,17-tetradecahydro-11-(methoxycarbonyl)-indolo(2',3':6,7,)azonino(1,2,3-bc)isoquinolin-11-yl]N-demethyl-N-formylvindoline] | 55 | 36 | 2000 | 4 × 10^-7 | 400 | 40 | 60 | 0.045 | 1.1 | – | – | 0.043 | 26.5 | 148
CC[C@]12C=CCN3CC[C@@]4(c5cc([C@@]6(C(=O)OC)C[C@H]7CN(CCc8c6[nH]c6ccccc86)Cc6ccccc67)c(OC)cc5N(C)[C@H]4[C@@](O)(C(=O)OC)[C@@H]1OC(C)=O)[C@@H]32 [A, (9R,11S)-15-[1,2,4,9,10,11,12,17-octahydro-11-(methoxycarbonyl)-indolo(2',3':6,7)azonino(1,2,3-bc)isoquinolin-11-yl]vindoline] | 95 | 4 | 400 | 4 × 10^-7 | 400 | 30 | 400 | 0.28 | < 1 | 19.7 | 105 | – | – | –
